Results as given in patent US12691124B2, “Methods of controlling and improving brain health” (ICAHN SCHOOL OF MEDICINE AT MOUNT SINAI, priority 2019, dated 2026).

Columns and labels:
Format in all cases: cell-based, mouse
[1] = tested on: primary cortical neurons; test: Polar metabolite mass spectrometry in primary cortical neurons
Procedure: Mass Spectrometry. Cell culture plates (2e6 cells per well n=7-8 per group) were washed with 75 mM Ammonium bicarbonate, pH 7.4, warmed to 37 degrees. Plates were quenched on liquid nitrogen for 10 seconds and then placed on dry ice. 1 ml of 70% Ethanol in MS-grade water was warmed to 75 degrees and added to each well. Plates were incubated in a 75 degree water bath for 3 minutes, shaking gently every minute. After 3 minutes, plates were placed on dry ice and once cooled, supernatants were lyophilized using the speed vacuum and stored at −80 degrees. Samples were shipped on dry ice to Cellzome who processed the samples for mass spectrometry and performed the initial analysis annotating metabolites. A semi-quantitative approach was used which determines the metabolite levels relative to a control rather than absolute concentrations. All detected ions were used for statistical analysis regardless of how many samples they were detected. This allows for the identification of low-abundant metabolites that may be present in only a subset of samples.
If IBET858 is indeed decreasing metabolism as indicated, comprehensive metabolic changes after BET inhibition should be observed. Therefore, an unbiased analysis of polar metabolites via mass spectrometry was employed (FIGS. 12A-12C). Accordingly, the levels of 100-150 unique metabolites are changed by chronic BET inhibition in primary cortical neurons.

[2] = tested on: primary cortical neurons; test: Neuronal longevity in primary cortical neuron culture (LDH, propidium iodide, cleaved caspase 3)
Description: Primary Cortical Neuron Culture. Embryonic day 18 (E18) timed-pregnant female mice were anesthetized with CO2 and sacrificed by cervical dislocation. In a dissection hood, 24-26 embryos per experiment were collected through an incision of the mother's abdomen, taken out of the amniotic sacs and decapitated in ice cold Hank's Balanced Salt Solution (HBSS). Using fine scissors and forceps, brains were rapidly dissected and the cortex cleared from meninges and isolated under a dissection microscope. Cortices were collected in ice cold HBSS and kept on ice until all embryos had been dissected. In a tissue culture hood, HBSS was removed and the cortex tissue digested by 0.25% Trypsin-EDTA for 12 minutes at 37° C., followed by DNase1 treatment for 10 minutes at 37° C. The tissue was dissociated by serial trituration with a 25 ml serological pipette, followed by trituration with 10 ml and 5 ml serological pipettes. Cell suspension was washed once with DMEM medium, supplemented with 10% FBS and 1% penicillin/streptomycin and passed through a […] cell strainer before counted on a hemocytometer. Single cells were seeded on poly-D-lysine (0.1 mg ml-1) coated wells at a density of 1×10^6 cells per well on a 12-well plate. Cells were grown in Neurobasal medium, complemented with B27 supplement, N2 supplement, and 0.5 mM L-glutamine and maintained at 37° C. in 5% CO2 for 1 week. Cultures were treated with DMSO (0.2%), I-BET858 (1 μM, 0.2% DMSO), BDNF (50 ng/ml), or BDNF+I-BET858 for 2 and 12 h on day 7 in vitro. Cultures were washed with phosphate-buffered saline (PBS) on ice and processed for RNA isolation using TRIzol/Chloroform extraction.
LDH Assay. LDH activity was measured using the Pierce LDH Cytotoxicity Assay Kit. Culture media was incubated with an equal volume of LDH master mix and incubated for 30 minutes at room temperature in the dark. After, the same volume of stop reagent was added and the absorbance was measured at 490 and 680 nm. Maximum LDH measurements were obtained by adding lysis buffer to release the total amount of LDH in the sample. LDH release is calculated as a percent of the maximum.
Propidium Iodide Assay. Propidium iodide (1 mg/ml, Life Technologies #P3566) was added to each culture well at a final concentration of 0.5 μg/ml. Cultures were incubated for 30 minutes at 37 degrees then washed with PBS. Cells were then fixed with 4% paraformaldehyde in PBS for 15 minutes at room temperature. After fixation, cells were washed with PBS and then mounted using mounting media containing DAPI.
In order to understand the effect of chronic BET inhibition on neuronal survival, primary cortical mouse neurons were cultured in the presence or absence of the brain permeable BET inhibitor IBET858 (1 μM). To quantify cell death over time, the levels of lactate dehydrogenase (LDH) were measured in culture media which is presumably released during cell death as the membranes become permeable. […] The observed decrease in LDH activity after BET inhibition occurs in a dose-dependent manner. LDH activity, which is an indirect measure of cell death, may be affected by other factors such as changes in metabolism or expression of the LDH genes. Therefore in order to confirm these findings, propidium iodide (PI) staining was used to directly quantify the number of dead neurons over time. This membrane impermeable dye increases in fluorescence 20-30 fold after intercalating DNA265. […] To give context to the magnitude of this effect on survival, this experiment was repeated with a direct comparison to the mTOR inhibitor, rapamycin (20 nM).

[3] = tested on: mTOR; test: mTOR signaling in neurons (p70-S6k Thr389 phosphorylation)
Procedure: Immunoblotting. Mice were anesthetized with CO2 followed by decapitation, and the region of interest was rapidly dissected and frozen in liquid nitrogen and stored at −80° C. until further processing. Samples were sonicated at 4° C. in 1% SDS solution supplemented with protease, Trichostatin A (500 ng/ml) and PhosStop phosphatase inhibitor (Roche, Switzerland), and boiled for ten minutes. The protein concentration was determined using a BCA protein assay kit (ThermoFisherScientific, USA) according to the manufacturer's instructions. Protein samples were diluted in equal volume of 2×LDS sample buffer (Invitrogen) and supplemented with DTT to a final concentration of 200 mM (Sigma).
Additionally, there is significant agreement between genes sensitive to BET inhibition and mTOR inhibition.

Structure (SMILES): CC(=O)N1c2ccc(-c3ccc(CN4CCCCC4)cc3)cc2[C@H](Nc2ccccc2)CC1C (stereo in doubt) [IBET858]
- enrichment of decreased metabolites, Arginine/Proline metabolism (OR) ([1]; 1 week IBET858): 26.8
- enrichment of decreased metabolites, Glutamate metabolism (OR) ([1]; 1 week IBET858): 24.4
- enrichment of decreased metabolites, Tyrosine metabolism (OR) ([1]; 1 week IBET858): 30.33
- enrichment of decreased metabolites, glycolysis (OR) ([1]; 1 week IBET858): 48.8
- enrichment of decreased metabolites, pentose phosphate pathway (OR) ([1]; 1 week IBET858): 42
- enrichment of increased metabolites, aspartate metabolism pathway (OR) ([1]; 1 week IBET858): 23.5
- amino acids significantly decreased ([1]; 1 week IBET858, 13/20): 65%
- unique metabolites changed ([1]; chronic BET inhibition (1 week)): 100-150 metabolites
- dose dependence of decrease in LDH activity [2]: dose-dependent
- neuron survival over time, propidium iodide assay ([2]; 1 μM): survive significantly longer than control
- number of cells positive for cleaved caspase 3 ([2]; 1 μM): decreased
- LDH activity in culture media over time ([2]; 1 μM, from day 16 in vitro): significantly less LDH activity
- neuronal lifespan, IBET858 compared with rapamycin ([2]; IBET858 1 μM, rapamycin 20 nM): to the same extent as rapamycin if not more
- mTOR activity, phosphorylation of p70-S6k at Thr389 [3]: significant, time-dependent decrease
- mTOR protein levels [3]: does not affect
